Laboratory results from patent US6737383B1, “Herbicidal oxadiazolidines” (priority 1999, dated 2004).

Experiments:
[1] = test system: cocklebur; test: Test B pre/postemergence cocklebur; assay type: in vivo, Xanthium strumarium
Text: (§1) Seeds of bedstraw (Galium aparine), blackgrass (Alopecurus myosuroides), surinam grass (Brachiaria decumbens), cocklebur (Xanthium strumarium), corn (Zea mays), crabgrass (Digitaria sanguinalis), giant foxtail (Setaria faberii), morningglory (Ipomoea hederacea), pigweed (Amaranthus retroflexus), rape (Brassica napus), soybean (Glycine max), sugar beet (Beta vulgaris), velvetleaf (Abutilon theophrasti), wheat (Triticum aestivum), wild oat (Avena fatua) and purple nutsedge (Cyperus rotundus) tubers were planted and treated preemnergence with test chemicals formulated in a non-phytotoxic solvent mixture which included a surfactant.
(§2) At the same time, these crop and weed species were also treated with postemergence applications of test chemicals formulated in the same manner. Plants ranged in height from 2 to 18 cm (1- to 4-leaf stage) for postemergence treatments. Plant species in the flood test consisted of rice (Oryza sativa), smallflower flatsedge (Cyperus difformis), duck salad (Heteranthera limosa) and bamyardgrass (Echinochloa crus-galli) grown to the 2-leaf stage for testing. Treated plants and controls were maintained in a greenhouse for twelve to sixteen days, after which all species were compared to controls and visually evaluated. Plant response ratings, summarized in Table B, are based on a scale of 0 to 10 where 0 is no effect and 10 is complete control. A dash (−) response means no test result.

[2] = test system: bedstraw; test: Test B pre/postemergence bedstraw; assay type: in vivo, Galium aparine
How it was run: (§3)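 Response is a visual 0-to-10 score relative to untreated plants, where 0 means no effect and 10 means complete control, taken twelve to sixteen days after application. Treatments went onto soil at planting and onto foliage of 1- to 4-leaf plants, using a surfactant-containing non-phytotoxic solvent.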

[3] = test system: crabgrass; test: Test B pre/postemergence crabgrass; assay type: in vivo, Digitaria sanguinalis
Text: as §1, §2

[4] = test system: soybean; test: Test B pre/postemergence soybean; assay type: in vivo, Glycine max
Text: as §1, §2

[5] = test system: pigweed; test: Test B pre/postemergence pigweed; assay type: in vivo, Amaranthus retroflexus
Text: as §1, §2

[6] = test system: blackgrass; test: Test B pre/postemergence blackgrass; assay type: in vivo, Alopecurus myosuroides
Text: as §1, §2

[7] = test system: purple nutsedge; test: Test B pre/postemergence purple nutsedge; assay type: in vivo, Cyperus rotundus
How it was run: as §3

[8] = test system: morningglory; test: Test B pre/postemergence morningglory; assay type: in vivo, Ipomoea hederacea
Text: as §1, §2

[9] = test system: surinam grass; test: Test B pre/postemergence surinam grass; assay type: in vivo, Brachiaria decumbens
How it was run: as §3

[10] = test system: wheat; test: Test B pre/postemergence wheat; assay type: in vivo, Triticum aestivum
Text: as §1, §2

[11] = test system: corn; test: Test B pre/postemergence corn; assay type: in vivo, Zea mays
Text: as §1, §2

[12] = test system: giant foxtail; test: Test B pre/postemergence giant foxtail; assay type: in vivo, Setaria faberii
Text: as §1, §2

[13] = test system: sugar beet; test: Test B pre/postemergence sugar beet; assay type: in vivo, Beta vulgaris
How it was run: as §3

[14] = test system: velvetleaf; test: Test B pre/postemergence velvetleaf; assay type: in vivo, Abutilon theophrasti
Text: as §1, §2

[15] = test system: wild oat; test: Test B pre/postemergence wild oat; assay type: in vivo, Avena fatua
Text: as §1, §2

[16] = test system: rape; test: Test B pre/postemergence rape; assay type: in vivo, Brassica napus
Text: as §1, §2

[17] = Postemergence, Rate 31 g/ha, visual rating, scale 0 to 10 (0 no effect, 10 complete control)
[18] = Postemergence, Rate 62 g/ha, scale of 0 to 10, 0 is no effect, 10 is complete control
[19] = Postemergence, Rate 125 g/ha, scale 0 to 10, 0 is no effect, 10 is complete control
[20] = Preemergence, Rate 31 g/ha, visual rating, scale 0 to 10 (0 no effect, 10 complete control)
[21] = Preemergence, Rate 62 g/ha, scale 0 to 10 (0 no effect, 10 complete control)
[22] = Preemergence, Rate 125 g/ha, scale 0 to 10, 0 is no effect, 10 is complete control
[23] = Rate 250 g/ha, Postemergence, scale of 0 to 10 where 0 is no effect and 10 is complete control
[24] = Preemergence, Rate 62 g/ha, scale of 0 to 10 where 0 is no effect and 10 is complete control
[25] = Preemergence, Rate 125 g/ha, scale of 0 to 10 where 0 is no effect and 10 is complete control
[26] = Preemergence, Rate 250 g/ha, scale 0 to 10 (0 no effect, 10 complete control)
[27] = Preemergence, Rate 500 g/ha, scale of 0 to 10 where 0 is no effect and 10 is complete control

## CC(C)N(C(=O)n1oc(=O)n(C[Si](C)(C)C)c1=O)c1ccc(Cl)cc1 [Compound 548]
[1]; [17]
  Cocklebur plant response rating: 0
[1]; [18]
  Cocklebur plant response rating: 0
[1]; [19]
  Cocklebur plant response rating: 0
[1]; [20]
  Cocklebur plant response rating: 0
[1]; [21]
  Cocklebur plant response rating: 0
[1]; [22]
  Cocklebur plant response rating: 0
[1]; Preemergence, Rate 250 g/ha
  Cocklebur plant response rating (0 to 10 scale): 0
[1]; [23]
  Plant response rating, Cocklebur: 0
[2]; [17]
  Bedstraw plant response rating: 0
[2]; [18]
  Bedstraw plant response rating: 0
[2]; [19]
  Bedstraw plant response rating: 4
[2]; [20]
  Bedstraw plant response rating: 9
[2]; [21]
  Bedstraw plant response rating: 8
[2]; [22]
  Bedstraw plant response rating: 10
[2]; Preemergence, Rate 250 g/ha
  Bedstraw plant response rating (0 to 10 scale): 10
[2]; [23]
  Plant response rating, Bedstraw: 9
[3]; [17]
  Crabgrass plant response rating: 0
[3]; [19]
  Crabgrass plant response rating: 5
[3]; [20]
  Crabgrass plant response rating: 4
[3]; [21]
  Crabgrass plant response rating: 9
[3]; [22]
  Crabgrass plant response rating: 9
[3]; Preemergence, Rate 250 g/ha
  Crabgrass plant response rating (0 to 10 scale): 10
[4]; [17]
  Soybean plant response rating: 1
[4]; [18]
  Soybean plant response rating: 2
[4]; [19]
  Soybean plant response rating: 2
[4]; [21]
  Soybean plant response rating: 0
[4]; [22]
  Soybean plant response rating: 0
[4]; Preemergence, Rate 250 g/ha
  Soybean plant response rating (0 to 10 scale): 0
[4]; [23]
  Plant response rating, Soybean: 2
[5]; [17]
  Redroot pigweed plant response rating: 0
[5]; [18]
  Redroot pigweed plant response rating: 0
[5]; [19]
  Redroot pigweed plant response rating: 0
[5]; [21]
  Redroot pigweed plant response rating: 0
[5]; [22]
  Redroot pigweed plant response rating: 0
[5]; Preemergence, Rate 250 g/ha
  Redroot pigweed plant response rating (0 to 10 scale): 2
[5]; [23]
  Plant response rating, Redroot pigweed: 2
[6]; [17]
  Blackgrass plant response rating: 0
[6]; [18]
  Blackgrass plant response rating: 0
[6]; [19]
  Blackgrass plant response rating: 0
[6]; [20]
  Blackgrass plant response rating: 0
[6]; [21]
  Blackgrass plant response rating: 0
[6]; [22]
  Blackgrass plant response rating: 3
[6]; Preemergence, Rate 250 g/ha
  Blackgrass plant response rating (0 to 10 scale): 3
[6]; [23]
  Plant response rating, Blackgrass: 3
[7]; [17]
  Nutsedge plant response rating: 0
[7]; [19]
  Nutsedge plant response rating: 0
[7]; [21]
  Nutsedge plant response rating: 0
[7]; [22]
  Nutsedge plant response rating: 0
[7]; Preemergence, Rate 250 g/ha
  Nutsedge plant response rating (0 to 10 scale): 0
[7]; [23]
  Plant response rating, Nutsedge: 0
[8]; [17]
  Morningglory plant response rating: 1
[8]; [18]
  Morningglory plant response rating: 5
[8]; [21]
  Morningglory plant response rating: 0
[8]; [22]
  Morningglory plant response rating: 0
[8]; Preemergence, Rate 250 g/ha
  Morningglory plant response rating (0 to 10 scale): 0
[8]; [23]
  Plant response rating, Morningglory: 8
[9]; [17]
  B. signalgrass plant response rating: 0
[9]; [18]
  B. signalgrass plant response rating: 0
[9]; [19]
  B. signalgrass plant response rating: 0
[9]; [20]
  B. signalgrass plant response rating: 0
[9]; [21]
  B. signalgrass plant response rating: 0
[9]; [22]
  B. signalgrass plant response rating: 2
[9]; Preemergence, Rate 250 g/ha
  B. signalgrass plant response rating (0 to 10 scale, 0 is no effect, 10 is complete control): 3
[9]; [23]
  Plant response rating, B. signalgrass: 0
[10]; [17]
  Wheat plant response rating: 0
[10]; [18]
  Wheat plant response rating: 0
[10]; [19]
  Wheat plant response rating: 0
[10]; [21]
  Wheat plant response rating: 0
[10]; [22]
  Wheat plant response rating: 0
[10]; Preemergence, Rate 250 g/ha
  Wheat plant response rating (0 to 10 scale): 0
[10]; [23]
  Plant response rating, Wheat: 2
[11]; [17]
  Corn plant response rating: 0
[11]; [18]
  Corn plant response rating: 0
[11]; [19]
  Corn plant response rating: 0
[11]; [20]
  Corn plant response rating: 0
[11]; [21]
  Corn plant response rating: 0
[11]; [22]
  Corn plant response rating: 0
[11]; Preemergence, Rate 250 g/ha
  Corn plant response rating (0 to 10 scale): 0
[11]; [23]
  Plant response rating, Corn: 0
[12]; [17]
  Giant foxtail plant response rating: 0
[12]; [18]
  Giant foxtail plant response rating: 0
[12]; [19]
  Giant foxtail plant response rating: 0
[12]; [20]
  Giant foxtail plant response rating: 9
[12]; [21]
  Giant foxtail plant response rating: 9
[12]; [22]
  Giant foxtail plant response rating: 9
[12]; Preemergence, Rate 250 g/ha
  Giant foxtail plant response rating (0 to 10 scale): 10
[12]; [23]
  Plant response rating, Giant foxtail: 0
[13]; [17]
  Sugarbeets plant response rating: 0
[13]; [18]
  Sugarbeets plant response rating: 0
[13]; [19]
  Sugarbeets plant response rating: 0
[13]; [21]
  Sugarbeets plant response rating: 0
[13]; [22]
  Sugarbeets plant response rating: 0
[13]; Preemergence, Rate 250 g/ha
  Sugarbeets plant response rating (0 to 10 scale): 2
[13]; [23]
  Plant response rating, Sugarbeets: 3
[14]; [17]
  Velvetleaf plant response rating: 0
[14]; [18]
  Velvetleaf plant response rating: 0
[14]; [19]
  Velvetleaf plant response rating: 0
[14]; [21]
  Velvetleaf plant response rating: 0
[14]; [22]
  Velvetleaf plant response rating: 0
[14]; Preemergence, Rate 250 g/ha
  Velvetleaf plant response rating (0 to 10 scale): 0
[14]; [23]
  Plant response rating, Velvetleaf: 0
[15]; [17]
  Wild oats plant response rating: 0
[15]; [18]
  Wild oats plant response rating: 0
[15]; [19]
  Wild oats plant response rating: 0
[15]; [21]
  Wild oats plant response rating: 0
[15]; [22]
  Wild oats plant response rating: 0
[15]; Preemergence, Rate 250 g/ha
  Wild oats plant response rating (0 to 10 scale): 2
[15]; [23]
  Plant response rating, Wild oats: 0
[16]; [17]
  Rape plant response rating: 0
[16]; [19]
  Rape plant response rating: 0
[16]; [21]
  Rape plant response rating: 0
[16]; [22]
  Rape plant response rating: 0
[16]; Preemergence, Rate 250 g/ha
  Rape plant response rating (0 to 10 scale): 2
[16]; [23]
  Plant response rating, Rape: 7

## CCn1ncc(Cn2c(=O)on(C(=O)N(c3ccc(F)cc3F)C(C)C)c2=O)c1Cl [Compound 682]
[1]; [24]
  Cocklebur plant response rating: 0
[1]; [25]
  Plant response rating, Cocklebur: 0
[1]; [26]
  Plant response rating, Cocklebur: 0
[1]; [27]
  Plant response rating, Cocklebur: 0
[2]; [24]
  Bedstraw plant response rating: 0
[2]; [25]
  Plant response rating, Bedstraw: 0
[2]; [26]
  Plant response rating, Bedstraw: 0
[2]; [27]
  Plant response rating, Bedstraw: 0
[3]; [24]
  Crabgrass plant response rating: 5
[3]; [25]
  Plant response rating, Crabgrass: 9
[3]; [26]
  Plant response rating, Crabgrass: 9
[3]; [27]
  Plant response rating, Crabgrass: 9
[4]; [24]
  Soybean plant response rating: 0
[4]; [25]
  Plant response rating, Soybean: 0
[4]; [27]
  Plant response rating, Soybean: 0
[5]; [24]
  Redroot pigweed plant response rating: 4
[5]; [25]
  Plant response rating, Redroot pigweed: 4
[5]; [27]
  Plant response rating, Redroot pigweed: 7
[6]; [24]
  Blackgrass plant response rating: 3
[6]; [25]
  Plant response rating, Blackgrass: 5
[6]; [26]
  Plant response rating, Blackgrass: 8
[6]; [27]
  Plant response rating, Blackgrass: 9
[7]; [24]
  Nutsedge plant response rating: 0
[7]; [25]
  Plant response rating, Nutsedge: 0
[7]; [27]
  Plant response rating, Nutsedge: 0
[8]; [24]
  Morningglory plant response rating: 0
[8]; [25]
  Plant response rating, Morningglory: 0
[8]; [27]
  Plant response rating, Morningglory: 3
[9]; [24]
  B. signalgrass plant response rating: 2
[9]; [25]
  Plant response rating, B. signalgrass: 6
[9]; [26]
  Plant response rating, B. signalgrass: 7
[9]; [27]
  Plant response rating, B. signalgrass: 8
[10]; [24]
  Wheat plant response rating: 0
[10]; [25]
  Plant response rating, Wheat: 0
[10]; [27]
  Plant response rating, Wheat: 0
[11]; [24]
  Corn plant response rating: 0
[11]; [25]
  Plant response rating, Corn: 0
[11]; [26]
  Plant response rating, Corn: 0
[11]; [27]
  Plant response rating, Corn: 0
[12]; [24]
  Giant foxtail plant response rating: 9
[12]; [25]
  Plant response rating, Giant foxtail: 10
[12]; [27]
  Plant response rating, Giant foxtail: 10
[13]; [24]
  Sugarbeets plant response rating: 0
[13]; [25]
  Plant response rating, Sugarbeets: 0
[13]; [27]
  Plant response rating, Sugarbeets: 7
[14]; [24]
  Velvetleaf plant response rating: 0
[14]; [25]
  Plant response rating, Velvetleaf: 0
[14]; [27]
  Plant response rating, Velvetleaf: 0
[15]; [24]
  Wild oats plant response rating: 0
[15]; [25]
  Plant response rating, Wild oats: 0
[15]; [27]
  Plant response rating, Wild oats: 8
[16]; [24]
  Rape plant response rating: 0
[16]; [25]
  Plant response rating, Rape: 0
[16]; [27]
  Plant response rating, Rape: 7
